Patent US11384118B2, “CAR-T cells targeting glioma stem cells for the treatment of glioblastoma multiforme” (H. Lee Moffitt Cancer Center and Research Institute, Inc., priority 2018, dated 2022)
“Also recorded” adds a separate entry of the source. Ends that are not written are not given here.

Assays:
[1] = tested on: glioblastoma tissue; experiment: Fluorescent peptide staining of glioblastoma and normal brain tissue; type: binding, human; conditions: peptide conjugated with fluorescein
Procedure: Patient brain tissues were obtained from Cleveland Clinic Tissue Bank. Cells (GSC and DGC) or frozen-sectioned tissues (glioblastoma and normal brain) were fixed in 4% paraformaldehyde and permeabilized with 0.1% Triton X-100 and stained using following primary antibodies: EYA1 (Aviva System Biology, ARP32434_P050), SOX2 (R&D system, MAB2018), vWF (Abcam, ab68548), CD31 (Santa Cruz Biotechnology, sc-1506), MYC (Cell signaling, 5605), and SIX1 (Abcam, ab84329) primary antibodies were incubated overnight at 4° C., followed species appropriate secondary antibodies with incubation for 3.5 hours at room temperature. Nuclei were stained with DAPI, and slides were then mounted with FluorSave (Calbiochem, 345789). Images were taken using a Leica DM4000 uplight microscopy. For DAB staining, tissues were incubated with rabbit anti-EYA1 or anti-c-Myc antibody overnight at 4° C., followed goat anti-rabbit biotinylated secondary antibody with incubation for 3.5 hours at room temperature. After incubation with antibodies, tissues were stained using VECTASTAIN Elite ABC HRP Kit (VECTOR LABORATORIES, PK-6100) and DAB Peroxidase Substrate Kit (VECTOR LABORATORIES, SK-4100) according to the manufacturer's instructions. After counterstaining with 50% hematoxylin, images were taken. […]

[2] = tested on: patient-derived glioma stem cells; experiment: IFNG release assay following overnight coculture of CAR-T cells with GSC; type: cell-based, human; conditions: GSC vs DGC of same patient, H2110 and media negative controls
Source text: Capitalizing on the unique ability of peptides EYA and VAV to bind to GSC, a series of chimeric antigen receptors (CARs) were designed that display a peptide derived from the EYA and VAV sequences, arranged in tandem, at the N-terminus of the CAR molecule. The role of the tandem peptides in the N-terminus of the CAR is to detect GSC, which in turn will activate the T cell through the CD3ζ domain in the C-terminus. Most CARs utilize antibody-derived molecules (Abate-Daga D, L et al. Hum Gene Ther. 2014 25(12):1003-12), or natural ligands (Brown C E, et al. N Engl J Med. 2016 375(26):2561-9; Brown C E, et al. Clin Cancer Res. 2012 18(8):2199-209) to receptors expressed by target cells to perform this function. Seven CAR constructs were generated based on combinations of peptides EYA and VAV (VAV-EYA and EYA-VAV), and of VAV plus five additional peptides (termed 1-VAV, 2-VAV, 3-VAV, 4-VAV, and 5-VAV) identified in the biopanning assays (FIG. 7). CAR cDNA was cloned into a retroviral expression vector used for clinical CAR-T cell manufacture, called pMSGV1, and the resulting constructs were used to transduce human primary T cells. The expression of the CAR molecules was first analyzed by Western blot against the CD3ζ chain of the CAR. Six of the seven CAR designs were expressed in transduced cells (FIG. 8). […]

[3] = tested on: glioblastoma xenografted into the subcutaneous flank; experiment: In vivo imaging after tail vein injection, subcutaneous flank xenograft; set-up: species or system NSG mice
Source text: (§1) Cyanine 5.5-conjugated peptide AWEFYFP (SEQ ID NO:2) and control peptide GGGSGGG (SEQ ID NO:33) were synthesized by LifeTein, LCC. (Hillsborough, N.J., USA). GSCs were implanted into subcutaneously (5×10^5 cells) or intracranially (5×10^4 cells) into 4 weeks old NSG mice under a Cleveland Clinic Foundation Institutional Animal Care and Use Committee approved protocol. After 4 weeks, cyanine 5.5-conjugated peptides were delivered into the mice via intravenous injection. Signals from injected peptides were monitored by fluorescence channel of IVIS Spectrum CT In Vivo Imaging System (PerkinElmer, USA) for 72 hours.

[4] = tested on: intracranial glioma patient-derived xenografts; experiment: In vivo imaging after tail vein injection, intracranial xenograft; set-up: species or system NSG mice
Source text: as §1

[5] = tested on: GSCs; experiment: Binding of Cy5.5-conjugated peptide to GSCs / GSC tumor sphere; set-up: species or system human; conditions: peptide conjugated with Cyanine 5.5
Procedure: Cells were dissociated to singles with TrypLE Express (Thermo Fisher Scientific) and recovered in Neurobasal medium at 37° C. for 1-2 hours. Before the incubation with primary antibodies, cells were blocked with 2% BSA in PBS for 30-50 minutes. Primary antibodies were treated at 4° C. for 40-90 minutes. Anti-EYA1 antibody (Aviva System Biology, ARP32434_P050), anti-IgG control antibody, 5(6)-carboxyfluorescein-conjugated peptide AWEFYFP, and cyanine 5.5-conjugated peptide AWEFYFP were used as primary antibodies. After washing with 1% BSA in PBS, cells were incubated with Alexa Fluor 488-conjugated goat anti-rabbit IgG antibody (Invitrogen, A11008) at 4° C. for 40 minutes. Unstained- or secondary antibody treated-cells without a primary antibody were used as negative controls. Labeled cells were analyzed by flow cytometry.

Substance: AWEFYFP (also: carboxyfluorescein conjugate) [GBM-IC2, used fluorescein-conjugated for staining]
- binding to glioblastoma tissue relative to normal brain [1]: specifically bound to glioblastoma tissue, relative to normal brain; also recorded: preferential binding to glioblastoma tissue
- binding to SOX2 expressing cells (co-staining with GSC marker SOX2) ([1]; double staining with anti-SOX2): greater binding of GBM-IC2 to SOX2 expressing cells; also recorded: co-staining with SOX2

Substance: 5-VAV: CAR with peptide #5 linked to peptide VAV (binding agent SEQ ID NO:27) (NWYWVYPGGGGSGGGGSGGGGSSSQPFWSGSTSGSGKPGSGEGSTKG) [Peptide 5-VAV]
- IFNG release / recognition of GSC [2]: specific recognition of GSC (but not differentiated glioma cells, DGC, derived from the same patient)

Substance: GBM-IC2-Cy5.5: GBM-IC2 peptide conjugated with Cyanine 5.5, a near infrared marker (AWEFYFP; also: Cy5.5 conjugate)
- earliest time of tumor binding after injection ([3]; flank xenograft): 20 min
- tumor targeting by imaging, flank xenograft ([3]; in vivo and ex vivo): high specificity of binding to the tumor; also recorded: specific targeting of the tumor four hours after injection in a dose dependent manner
- histological analysis of peptide signal in intracranial tumor ([4]; ex vivo brain sections): positive fluorescent signal in the intracranial tumor samples
- tumor targeting by imaging, intracranial xenograft ([4]; tail vein injection, imaging 20 minutes post-injection, in vivo and ex vivo): strong specificity of binding of tumor in the intracranial cavity; also recorded: specific targeting of the intracranial tumor
- penetration of the BBB ([4]; tail vein injection, intracranial xenograft): penetrate the BBB
- binding to GSCs [5]: binding to GSCs in a concentration-dependent manner
- binding to GSCs ([5]; listed as GBM-IC2 conjugated with Cy5.5): preferential binding to GSC tumor sphere
